Data from PubChem BioAssay (NCI).
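The concentration for 50% growth inhibition is given as GI50. TGI: total growth inhibition.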

Key:
Experiment in all cases: NCI-60 cell line screen, 384-well format
SW-620 colon = tested on: SW-620 colon
UACC-62 melanoma = tested on: UACC-62 melanoma
SF-295 CNS = tested on: SF-295 CNS
ACHN renal = tested on: ACHN renal
MDA-MB-435 melanoma = tested on: MDA-MB-435 melanoma
COLO 205 colon = tested on: COLO 205 colon
UO-31 renal = tested on: UO-31 renal
KM12 colon = tested on: KM12 colon
NCI-H460 NSCLC = tested on: NCI-H460 NSCLC
BT-549 breast = tested on: BT-549 breast
SR leukemia = tested on: SR leukemia
SK-MEL-5 melanoma = tested on: SK-MEL-5 melanoma
OVCAR-5 ovarian = tested on: OVCAR-5 ovarian
MCF7 breast = tested on: MCF7 breast
NCI-H226 lung = tested on: NCI-H226 lung
NCI-H322M lung = tested on: NCI-H322M lung
MDA-MB-231 breast = tested on: MDA-MB-231 breast
SK-OV-3 ovarian = tested on: SK-OV-3 ovarian
MOLT-4 leukemia = tested on: MOLT-4 leukemia
HS 578T breast = tested on: HS 578T breast
T-47D breast = tested on: T-47D breast
SNB-19 CNS = tested on: SNB-19 CNS
NCI-H522 lung = tested on: NCI-H522 lung
DU-145 prostate = tested on: DU-145 prostate
SF-539 CNS = tested on: SF-539 CNS
EKVX NSCLC = tested on: EKVX NSCLC
RXF 393 renal = tested on: RXF 393 renal
U251 glioblastoma = tested on: U251 glioblastoma
SK-MEL-28 melanoma = tested on: SK-MEL-28 melanoma
HL-60(TB) leukemia = tested on: HL-60(TB) leukemia
RPMI-8226 leukemia = tested on: RPMI-8226 leukemia
TK-10 renal = tested on: TK-10 renal
IGROV1 ovarian = tested on: IGROV1 ovarian
LOX IMVI melanoma = tested on: LOX IMVI melanoma
SN12C renal = tested on: SN12C renal
786-0 renal = tested on: 786-0 renal
HT29 colon = tested on: HT29 colon
SF-268 CNS = tested on: SF-268 CNS
NCI/ADR-RES ovarian = tested on: NCI/ADR-RES ovarian
OVCAR-3 ovarian = tested on: OVCAR-3 ovarian
UACC-257 melanoma = tested on: UACC-257 melanoma
OVCAR-8 ovarian = tested on: OVCAR-8 ovarian
HCT-15 colon = tested on: HCT-15 colon
SNB-75 CNS = tested on: SNB-75 CNS
HOP-92 NSCLC = tested on: HOP-92 NSCLC
HCC-2998 colon = tested on: HCC-2998 colon
CAKI-1 renal = tested on: CAKI-1 renal
A549 NSCLC = tested on: A549 NSCLC
OVCAR-4 ovarian = tested on: OVCAR-4 ovarian
K-562 leukemia = tested on: K-562 leukemia
MDA-MB-468 breast = tested on: MDA-MB-468 breast
A498 renal = tested on: A498 renal
PC-3 prostate = tested on: PC-3 prostate
HOP-62 NSCLC = tested on: HOP-62 NSCLC
M14 melanoma = tested on: M14 melanoma
MALME-3M melanoma = tested on: MALME-3M melanoma
CCRF-CEM leukemia = tested on: CCRF-CEM leukemia
NCI-H23 lung = tested on: NCI-H23 lung

## NC(N)=Nc1ccc(-n2nc(C(F)(F)F)cc2-c2ccc3c(ccc4ccccc43)c2)cc1
SW-620 colon
  GI50: 1.82 µM
  TGI: 3.23 µM
UACC-62 melanoma
  GI50: 1.74 µM
  TGI: 3.13 µM
SF-295 CNS
  GI50: 1.84 µM
  TGI: 3.25 µM
ACHN renal
  GI50: 1.84 µM
  TGI: 3.25 µM
MDA-MB-435 melanoma
  GI50: 1.85 µM
  TGI: 3.26 µM
COLO 205 colon
  GI50: 1.3 µM
  TGI: 2.58 µM
UO-31 renal
  GI50: 1.78 µM
  TGI: 3.2 µM
KM12 colon
  GI50: 1.47 µM
  TGI: 2.8 µM
NCI-H460 NSCLC
  GI50: 1.69 µM
  TGI: 3.07 µM
BT-549 breast
  GI50: 1.75 µM
  TGI: 3.14 µM
SR leukemia
  GI50: 0.765 µM
  TGI: 2.02 µM
SK-MEL-5 melanoma
  GI50: 1.83 µM
  TGI: 3.22 µM
OVCAR-5 ovarian
  GI50: 1.88 µM
  TGI: 3.29 µM
MCF7 breast
  GI50: 1.25 µM
  TGI: 2.52 µM
NCI-H226 lung
  GI50: 1.64 µM
  TGI: 3.01 µM
NCI-H322M lung
  GI50: 1.65 µM
  TGI: 3.02 µM
MDA-MB-231 breast
  GI50: 1.57 µM
  TGI: 2.93 µM
SK-OV-3 ovarian
  GI50: 1.62 µM
  TGI: 2.98 µM
MOLT-4 leukemia
  GI50: 1.44 µM
  TGI: 2.75 µM
HS 578T breast
  GI50: 1.77 µM
  TGI: 3.16 µM
T-47D breast
  GI50: 1.76 µM
  TGI: 3.15 µM
SNB-19 CNS
  GI50: 1.77 µM
  TGI: 3.17 µM
NCI-H522 lung
  GI50: 1.78 µM
  TGI: 3.18 µM
DU-145 prostate
  GI50: 1.85 µM
  TGI: 3.27 µM
SF-539 CNS
  GI50: 1.86 µM
  TGI: 3.27 µM
EKVX NSCLC
  GI50: 1.72 µM
  TGI: 3.1 µM
RXF 393 renal
  GI50: 1.59 µM
  TGI: 2.93 µM
U251 glioblastoma
  GI50: 1.84 µM
  TGI: 3.27 µM
SK-MEL-28 melanoma
  GI50: 1.78 µM
  TGI: 3.17 µM
HL-60(TB) leukemia
  GI50: 0.838 µM
  TGI: 2.07 µM
RPMI-8226 leukemia
  GI50: 1.31 µM
  TGI: 2.59 µM
TK-10 renal
  GI50: 1.81 µM
  TGI: 3.21 µM
IGROV1 ovarian
  GI50: 1.82 µM
  TGI: 3.23 µM
LOX IMVI melanoma
  GI50: 1.53 µM
  TGI: 2.87 µM
SN12C renal
  GI50: 1.81 µM
  TGI: 3.22 µM
786-0 renal
  GI50: 1.62 µM
  TGI: 2.98 µM
HT29 colon
  GI50: 1.74 µM
  TGI: 3.14 µM
SF-268 CNS
  GI50: 1.83 µM
  TGI: 3.24 µM
NCI/ADR-RES ovarian
  GI50: 2.38 µM
  TGI: 4.83 µM
OVCAR-3 ovarian
  GI50: 1.84 µM
  TGI: 3.26 µM
UACC-257 melanoma
  GI50: 1.95 µM
  TGI: 3.37 µM
OVCAR-8 ovarian
  GI50: 1.83 µM
  TGI: 3.23 µM
HCT-15 colon
  GI50: 1.53 µM
  TGI: 2.89 µM
SNB-75 CNS
  GI50: 1.76 µM
  TGI: 3.15 µM
HOP-92 NSCLC
  GI50: 1.39 µM
  TGI: 2.7 µM
HCC-2998 colon
  GI50: 0.736 µM
  TGI: 2.03 µM
CAKI-1 renal
  GI50: 1.74 µM
  TGI: 3.14 µM
A549 NSCLC
  GI50: 1.74 µM
  TGI: 3.13 µM
OVCAR-4 ovarian
  GI50: 1.61 µM
  TGI: 2.97 µM
K-562 leukemia
  GI50: 1.57 µM
  TGI: 2.92 µM
MDA-MB-468 breast
  GI50: 2.02 µM
  TGI: 3.45 µM
A498 renal
  GI50: 1.55 µM
  TGI: 2.9 µM
PC-3 prostate
  GI50: 1.72 µM
  TGI: 3.11 µM
HOP-62 NSCLC
  GI50: 1.77 µM
  TGI: 3.17 µM
M14 melanoma
  GI50: 1.74 µM
  TGI: 3.14 µM
MALME-3M melanoma
  GI50: 1.65 µM
  TGI: 3.02 µM
CCRF-CEM leukemia
  GI50: 1.11 µM
  TGI: 2.31 µM
NCI-H23 lung
  GI50: 1.63 µM
  TGI: 2.99 µM
